The target in one test is CDK13 (Homo sapiens, UniProt Q14004). Description: Western blot degradation of CDK13 (Example 2). The class given is cell-based. Set-up: degradation of CDK12/13 protein in leukemia cells KASUMI-1, MV4-11, and Jurkat; endogenous in cells. The following applies: DC50 classes, cell line not given; for DC50: read-out: CDK13 degradation Activity. As for the experimental part: (§1) Western blot was used to determine the degradation of CDK12/13 protein in leukemia cells KASUMI-1, MV4-11, and Jurkat. The two compounds with the best degradation effects were further validated for their ability to degrade CDK12/13 protein in breast cancer cells MDA-MB-231 using a concentration gradient.
(§2) • Cell lines: KASUMI-1, MV4-11, Jurkat, or MDA-MB-231 • Culture medium: DMEM/RIPM-1640+10% Hyclone serum • Compound dissolution method: Compounds were dissolved in DMSO to prepare a 50 mM stock solution, and then diluted to the corresponding concentrations.
(§3) (1) In vitro cell culture: The selected cells were cultured in a 37 °C constant temperature incubator with 5% CO2. Once the cell density reached 70-90%, they were passaged for subsequent experiments.
(§4) (2) Cell seeding: Cells were digested, and the cell suspension was transferred to a 1.5 mL Eppendorf tube. After centrifugation at 1,000 rpm for 5 min, the cells were resuspended in 2 mL of culture medium and counted. The cell suspension was seeded in a 24-well plate at a density of 200,000 cells per well and allowed to adhere for 8-12 h.
(§5) (3) Compound treatment: The 50 mM compound stock solution was diluted with cell culture medium to a final concentration of 0.01 μM-3 μM. Cells were incubated in a 37 °C incubator with 5% CO2 for 3 h-48 h. The DMSO group served as the negative control.
(§6) At the end of the treatment time, the cells were collected and washed once with PBS. An appropriate volume of 4% SDS was added to lyse the cells, and the mixture was sonicated until no longer viscous. After centrifugation at 12,000 rpm at room temperature for 30 min, the supernatant was transferred to a new EP tube for protein quantification.
(§7) The exposure results were quantitatively analyzed using Image J software. First, the grayscale values of the bands were calculated using Image J. Then, the grayscale value of the target protein was divided by the grayscale value of the internal reference protein for normalization. The calculation formula is: […]
(§8) Where A is the grayscale value and D is the degradation rate.
(§9) In the figures, CDK12 and CDK13 are the target proteins under study, and β-Actin and GAPDH are the internal reference proteins. Internal reference proteins are used to indicate the total protein amount in each experimental group for quantitative analysis.
A general note: A western blot detects proteins with antibodies after separation by electrophoresis.

The next test has as its target CDK12 (Homo sapiens, UniProt Q9NYV4). In words: Western blot degradation of CDK12 (Example 2). The class given is cell-based. Set-up: degradation of CDK12/13 protein in leukemia cells KASUMI-1, MV4-11, and Jurkat; endogenous in cells. The following applies: DC50 classes, cell line not given; for DC50: read-out: CDK12 degradation Activity. Here is the method: as §1, §2, §3, §4, §5, §6, §7, §8, §9

Bounds are passed on as bounds.

Sequence of CDK12 (Q9NYV4 whole entry): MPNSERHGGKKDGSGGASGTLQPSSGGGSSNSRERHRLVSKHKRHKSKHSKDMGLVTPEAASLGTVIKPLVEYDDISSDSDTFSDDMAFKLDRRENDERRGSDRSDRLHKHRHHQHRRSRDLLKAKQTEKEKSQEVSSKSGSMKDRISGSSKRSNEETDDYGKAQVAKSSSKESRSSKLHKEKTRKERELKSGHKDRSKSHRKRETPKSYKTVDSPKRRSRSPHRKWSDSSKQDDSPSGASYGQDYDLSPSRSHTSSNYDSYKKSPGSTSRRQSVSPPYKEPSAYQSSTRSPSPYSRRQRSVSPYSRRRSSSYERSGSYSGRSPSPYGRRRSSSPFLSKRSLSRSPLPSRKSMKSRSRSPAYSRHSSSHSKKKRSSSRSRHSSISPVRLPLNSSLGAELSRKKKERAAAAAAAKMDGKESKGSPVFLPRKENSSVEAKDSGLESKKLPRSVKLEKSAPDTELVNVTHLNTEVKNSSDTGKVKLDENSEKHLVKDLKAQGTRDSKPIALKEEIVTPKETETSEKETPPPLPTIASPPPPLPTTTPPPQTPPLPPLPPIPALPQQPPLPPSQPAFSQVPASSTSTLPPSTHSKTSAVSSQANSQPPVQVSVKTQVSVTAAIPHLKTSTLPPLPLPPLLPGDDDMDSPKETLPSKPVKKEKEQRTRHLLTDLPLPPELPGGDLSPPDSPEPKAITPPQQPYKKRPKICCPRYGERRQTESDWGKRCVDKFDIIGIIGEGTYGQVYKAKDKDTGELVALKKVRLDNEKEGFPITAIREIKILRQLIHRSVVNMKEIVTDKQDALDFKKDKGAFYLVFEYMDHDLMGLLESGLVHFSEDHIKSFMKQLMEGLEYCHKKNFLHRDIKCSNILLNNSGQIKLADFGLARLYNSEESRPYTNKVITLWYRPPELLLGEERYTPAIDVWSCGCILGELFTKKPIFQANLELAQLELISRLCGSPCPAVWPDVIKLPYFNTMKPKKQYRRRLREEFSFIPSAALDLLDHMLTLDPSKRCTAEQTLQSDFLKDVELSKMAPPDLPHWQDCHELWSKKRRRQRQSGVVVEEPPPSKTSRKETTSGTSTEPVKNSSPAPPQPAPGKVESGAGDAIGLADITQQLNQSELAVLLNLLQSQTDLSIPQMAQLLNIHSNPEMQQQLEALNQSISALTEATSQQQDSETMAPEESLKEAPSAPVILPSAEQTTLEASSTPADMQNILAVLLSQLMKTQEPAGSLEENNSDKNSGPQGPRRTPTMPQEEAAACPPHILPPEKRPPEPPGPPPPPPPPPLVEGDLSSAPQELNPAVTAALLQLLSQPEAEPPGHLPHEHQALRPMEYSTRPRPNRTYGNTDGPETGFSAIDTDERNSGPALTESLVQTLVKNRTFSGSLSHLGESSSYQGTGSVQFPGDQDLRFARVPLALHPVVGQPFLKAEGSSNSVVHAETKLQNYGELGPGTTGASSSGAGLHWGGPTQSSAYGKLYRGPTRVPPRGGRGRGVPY
Sequence of CDK12 (O75909 whole entry partner): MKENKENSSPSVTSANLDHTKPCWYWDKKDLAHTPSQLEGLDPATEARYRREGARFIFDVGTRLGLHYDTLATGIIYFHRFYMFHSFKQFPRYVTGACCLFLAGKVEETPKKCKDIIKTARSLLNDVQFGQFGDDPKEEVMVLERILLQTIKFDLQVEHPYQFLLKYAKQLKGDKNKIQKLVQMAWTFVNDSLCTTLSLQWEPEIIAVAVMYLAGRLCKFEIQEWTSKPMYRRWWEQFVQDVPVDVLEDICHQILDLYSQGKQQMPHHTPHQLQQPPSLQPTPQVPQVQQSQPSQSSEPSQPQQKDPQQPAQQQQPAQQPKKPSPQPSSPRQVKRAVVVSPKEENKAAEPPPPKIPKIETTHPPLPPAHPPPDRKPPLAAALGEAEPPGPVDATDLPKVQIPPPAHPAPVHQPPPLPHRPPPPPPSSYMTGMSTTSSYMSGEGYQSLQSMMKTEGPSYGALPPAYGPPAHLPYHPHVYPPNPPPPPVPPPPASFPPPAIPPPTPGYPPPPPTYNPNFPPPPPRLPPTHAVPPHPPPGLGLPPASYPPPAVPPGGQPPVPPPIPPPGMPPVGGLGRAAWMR
Sequence of CDK13 (Q14004 whole entry): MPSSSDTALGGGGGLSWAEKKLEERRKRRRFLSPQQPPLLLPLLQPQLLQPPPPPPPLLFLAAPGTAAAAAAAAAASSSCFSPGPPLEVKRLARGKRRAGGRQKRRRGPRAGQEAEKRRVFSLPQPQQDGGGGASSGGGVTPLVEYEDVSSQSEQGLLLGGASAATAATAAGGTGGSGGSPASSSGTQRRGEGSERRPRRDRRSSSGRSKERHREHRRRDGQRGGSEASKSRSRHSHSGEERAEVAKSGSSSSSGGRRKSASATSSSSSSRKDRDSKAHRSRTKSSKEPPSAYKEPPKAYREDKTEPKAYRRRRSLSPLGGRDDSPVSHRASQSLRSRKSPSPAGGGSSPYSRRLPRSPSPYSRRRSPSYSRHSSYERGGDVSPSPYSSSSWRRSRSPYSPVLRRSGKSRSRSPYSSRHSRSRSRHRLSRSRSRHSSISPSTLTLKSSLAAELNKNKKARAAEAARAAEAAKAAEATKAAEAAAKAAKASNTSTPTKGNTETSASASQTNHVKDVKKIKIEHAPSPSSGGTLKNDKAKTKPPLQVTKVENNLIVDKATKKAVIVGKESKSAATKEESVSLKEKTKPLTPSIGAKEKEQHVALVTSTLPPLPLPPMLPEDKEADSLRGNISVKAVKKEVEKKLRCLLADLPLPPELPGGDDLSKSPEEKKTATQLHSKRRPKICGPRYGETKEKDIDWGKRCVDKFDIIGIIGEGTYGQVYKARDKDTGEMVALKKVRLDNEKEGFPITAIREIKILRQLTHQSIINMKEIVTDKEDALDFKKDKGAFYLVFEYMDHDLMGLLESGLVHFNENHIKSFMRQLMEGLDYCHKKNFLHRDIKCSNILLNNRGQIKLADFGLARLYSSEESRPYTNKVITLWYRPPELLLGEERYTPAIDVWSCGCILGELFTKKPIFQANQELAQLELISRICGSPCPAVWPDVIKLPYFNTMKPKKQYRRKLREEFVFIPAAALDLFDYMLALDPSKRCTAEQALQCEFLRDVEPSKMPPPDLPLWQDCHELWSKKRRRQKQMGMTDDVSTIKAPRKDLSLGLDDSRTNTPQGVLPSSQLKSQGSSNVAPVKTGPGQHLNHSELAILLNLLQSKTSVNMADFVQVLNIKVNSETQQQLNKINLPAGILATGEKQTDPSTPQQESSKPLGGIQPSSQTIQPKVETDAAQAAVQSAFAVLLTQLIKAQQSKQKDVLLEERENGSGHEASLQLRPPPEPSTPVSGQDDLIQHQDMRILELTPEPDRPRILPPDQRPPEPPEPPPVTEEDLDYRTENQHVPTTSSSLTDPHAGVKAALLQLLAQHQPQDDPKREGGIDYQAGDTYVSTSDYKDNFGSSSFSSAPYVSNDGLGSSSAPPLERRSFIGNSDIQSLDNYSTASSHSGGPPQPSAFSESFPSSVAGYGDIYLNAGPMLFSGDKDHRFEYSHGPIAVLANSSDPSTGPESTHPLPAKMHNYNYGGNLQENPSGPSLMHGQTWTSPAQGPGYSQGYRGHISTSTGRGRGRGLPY
Sequence of CDK13 (O75909 whole entry partner): as the sequence (O75909 whole entry partner) above

As to `Cc1ncsc1-c1ccc([C@H](C)NC(=O)[C@@H]2C[C@@H](O)CN2C(=O)[C@@H](NC(=O)COCCOCCOCCOc2ccc(-c3ccc(N(C(=O)NCc4ccccc4)[C@H]4CC[C@H](Nc5ccc(C#N)cn5)CC4)cc3)cn2)C(C)(C)C)cc1` [Formula 3], the DC50 at CDK13 and at CDK12 was 3000 to 10000 nM each time.

On to `Cc1ncsc1-c1ccc([C@H](C)NC(=O)[C@@H]2C[C@@H](O)CN2C(=O)[C@@H](NC(=O)CN2CCN(c3ncc(-c4ccc(N(C(=O)NCc5ccccc5)[C@H]5CC[C@H](Nc6ccc(C#N)cn6)CC5)cc4)cn3)CC2)C(C)(C)C)cc1` [Formula 84], for which the DC50 at CDK13 and at CDK12 was under 100 nM throughout.

`N#Cc1ccc(N[C@H]2CC[C@H](N(C(=O)NCc3ccccc3)c3ccc(N4CCN(CCOCCNc5cccc6c5C(=O)N(C5CCC(=O)NC5=O)C6=O)CC4)cc3)CC2)nc1` (stereo partly drawn) [Formula 38]: the DC50 was 1000 to 3000 nM at CDK13 and 500 to 1000 nM on CDK12.

For `N#Cc1ccc(N[C@H]2CC[C@H](N(C(=O)NCc3ccccc3)c3ccc(N4CCN(CCOCCOCCOCCNc5cccc6c5C(=O)N(C5CCC(=O)NC5=O)C6=O)CC4)cc3)CC2)nc1` (stereo partly drawn) [Formula 40], the DC50 at CDK13 fell in the range of 1000 to 3000 nM; at CDK12 it was 500 to 1000 nM.

Regarding `CCNC(=O)N(c1ccc(-c2ccc(OCCOCCOCCOCCNc3cccc4c3C(=O)N(C3CCC(=O)NC3=O)C4=O)nc2)cc1)[C@H]1CC[C@H](Nc2ccc(C#N)cn2)CC1` (stereo partly drawn) [Formula 43], the DC50 at CDK13 and at CDK12 was 1000 to 3000 nM each time.

With `Cc1ncsc1-c1ccc([C@H](C)NC(=O)[C@@H]2C[C@@H](O)CN2C(=O)[C@@H](NC(=O)CC#CCCOc2ccc(-c3ccc(N(C(=O)NCc4ccccc4)[C@H]4CC[C@H](Nc5ccc(C#N)cn5)CC4)cc3)cn2)C(C)(C)C)cc1` [Formula 13], the DC50 at CDK13 and on CDK12 was 3000 to 10000 nM in each case.

Take `Cc1ncsc1-c1ccc([C@H](C)NC(=O)[C@@H]2C[C@@H](O)CN2C(=O)[C@@H](NC(=O)COCCOc2ccc(-c3ccc4c(c3)CN(Cc3ccccc3)C(=O)N4[C@H]3CC[C@H](Nc4ccc(C#N)cn4)CC3)cn2)C(C)(C)C)cc1` [Formula 62]: the DC50 at CDK13 and on CDK12 was 500 to 1000 nM throughout.

With `N#Cc1ccc(N[C@H]2CC[C@H](N(C(=O)NCc3ccccc3)c3ccc(-c4ccc(=O)n(CCOCCOCCOCCOCCOCCNc5cccc6c5C(=O)N(C5CCC(=O)NC5=O)C6=O)c4)cc3)CC2)nc1` (stereo partly drawn) [Formula 50], the DC50 at CDK13 and on CDK12 was 3000 to 10000 nM in each case.

Regarding `Cc1ncsc1-c1ccc([C@H](C)NC(=O)[C@@H]2C[C@@H](O)CN2C(=O)[C@@H](NC(=O)CN2CCN(c3ncc(-c4ccc(N(C(=O)NCc5ccccc5)[C@H]5CC[C@H](Nc6ccc(C#N)cn6)CC5)cc4)cn3)CC2)C(C)(C)C)cc1` [Formula 79], the DC50 at CDK13 and on CDK12 was under 100 nM throughout.

Regarding `Cc1ncsc1-c1ccc([C@H](C)NC(=O)[C@@H]2C[C@@H](O)CN2C(=O)[C@@H](NC(=O)COCCOCCOCCOCCn2cc(-c3ccc(N(C(=O)NCc4ccccc4)[C@H]4CC[C@H](Nc5ccc(C#N)cn5)CC4)cc3)ccc2=O)C(C)(C)C)cc1` [Formula 59], the DC50 at CDK13 and at CDK12 was 1000 to 3000 nM each time.

Consider `Cc1ncsc1-c1ccc([C@H](C)NC(=O)[C@@H]2C[C@@H](O)CN2C(=O)[C@@H](NC(=O)COc2ccc(-c3ccc(N(C(=O)NCc4ccccc4)[C@H]4CC[C@H](Nc5ccc(C#N)cn5)CC4)cc3)cn2)C(C)(C)C)cc1` [Formula 6], for which the DC50 lay within 500 to 1000 nM on CDK13 and 1000 to 3000 nM on CDK12.

In the case of `Cc1ncsc1-c1ccc([C@H](C)NC(=O)[C@@H]2C[C@@H](O)CN2C(=O)[C@@H](NC(=O)CC2CCN(c3ccc(-c4ccc(N(C(=O)NCc5ccccc5)[C@H]5CC[C@H](Nc6ccc(C#N)cn6)CC5)cc4)cn3)C2)C(C)(C)C)cc1` (stereo partly drawn) [Formula 30], the DC50 at CDK13 and on CDK12 was 500 to 1000 nM each time.

Take `Cc1ncsc1-c1ccc([C@H](C)NC(=O)[C@@H]2C[C@@H](O)CN2C(=O)[C@@H](NC(=O)COCCN2CCN(c3ccc(N(C(=O)NCc4ccccc4)[C@H]4CC[C@H](Nc5ccc(C#N)cn5)CC4)cc3)CC2)C(C)(C)C)cc1` [Formula 7]: the DC50 at CDK13 lay in the range of 3000 to 10000 nM; on CDK12 it was 1000 to 3000 nM.

Turning to `Cc1ncsc1-c1ccc([C@H](C)NC(=O)[C@@H]2C[C@@H](O)CN2C(=O)[C@@H](NC(=O)CN2CCN(c3ncc(-c4ccc(N(C(=O)NCc5ccccc5)[C@H]5CC[C@H](Nc6ccc(C#N)cn6)CC5)cc4)cn3)CC2)C(C)(C)C)cc1` [Formula 85], the DC50 at CDK13 and on CDK12 was under 100 nM in each case.

Consider `CCNC(=O)N(c1ccc(-c2ccc(N3CCN(CC(=O)N[C@H](C(=O)N4C[C@H](O)C[C@H]4C(=O)N[C@@H](C)c4ccc(-c5scnc5C)cc4)C(C)(C)C)CC3)nc2)cc1)[C@H]1CC[C@H](Nc2ccc(C#N)cn2)CC1` [Formula 44], for which the figures for the DC50 on CDK13 and at CDK12 were 100 to 500 nM and 500 to 1000 nM, respectively.

Turning to `N#Cc1ccc(N[C@H]2CC[C@H](N(C(=O)NCc3ccccc3)c3ccc(N4CCN(CCOCCOCCNc5cccc6c5C(=O)N(C5CCC(=O)NC5=O)C6=O)CC4)cc3)CC2)nc1` (stereo partly drawn) [Formula 39], the DC50 on CDK13 lay within 3000 to 10000 nM; on CDK12, 1000 to 3000 nM.

With `Cc1ncsc1-c1ccc([C@H](C)NC(=O)[C@@H]2C[C@@H](O)CN2C(=O)[C@@H](NC(=O)COCCOCCOCCN2CCN(c3ccc(N(C(=O)NCc4ccccc4)[C@H]4CC[C@H](Nc5ccc(C#N)cn5)CC4)cc3)CC2)C(C)(C)C)cc1` [Formula 9], the DC50 on CDK13 and on CDK12 was 3000 to 10000 nM throughout.

Consider `Cc1ncsc1-c1ccc([C@H](C)NC(=O)[C@@H]2C[C@@H](O)CN2C(=O)[C@@H](NC(=O)CN2CC(C#Cc3ccc(N(C(=O)NCc4ccccc4)[C@H]4CC[C@H](Nc5ccc(C#N)cn5)CC4)cc3)C2)C(C)(C)C)cc1` [Formula 26], for which the “CDK13 degradation Activity” value at CDK13 was “−”. Further, the “CDK12 degradation Activity” value on CDK12 is “−”.

Take `Cc1ncsc1-c1ccc([C@H](C)NC(=O)[C@@H]2C[C@@H](O)CN2C(=O)[C@@H](NC(=O)CN2CCN(c3ncc(-c4ccc(N(C(=O)NCc5ccccc5)[C@H]5CC[C@H](Nc6ccc(C#N)cn6)CC5)cc4)cn3)CC2)C(C)(C)C)cc1` [Formula 86]: the DC50 at CDK13 and on CDK12 was under 100 nM in each case.

Turning to `Cc1ncsc1-c1ccc([C@H](C)NC(=O)[C@@H]2C[C@@H](O)CN2C(=O)[C@@H](NC(=O)CC#CC2CN(c3ccc(N(C(=O)NCc4ccccc4)[C@H]4CC[C@H](Nc5ccc(C#N)cn5)CC4)cc3)C2)C(C)(C)C)cc1` [Formula 24], the “CDK13 degradation Activity” value at CDK13 is “−”. Besides, the “CDK12 degradation Activity” value at CDK12 was “−”.

As for `Cc1ncsc1-c1ccc([C@H](C)NC(=O)[C@@H]2C[C@@H](O)CN2C(=O)[C@@H](NC(=O)N2CC3(CCN(c4ccc(N(C(=O)NCc5ccccc5)[C@H]5CC[C@H](Nc6ncc(C#N)cn6)CC5)cc4)CC3)C2)C(C)(C)C)cc1` [Formula 54], at CDK13, the “CDK13 degradation Activity” value is given as “−”. For the same compound, at CDK12, the “CDK12 degradation Activity” value is “−”.

Turning to `Cc1ncsc1-c1ccc([C@H](C)NC(=O)[C@@H]2C[C@@H](O)CN2C(=O)[C@@H](NC(=O)CN2CCN(c3ccc(-c4ccc5c(c4)CCN(Cc4ccccc4)C(=O)N5[C@H]4CC[C@H](Nc5ccc(C#N)cn5)CC4)cn3)CC2)C(C)(C)C)cc1` [Formula 69], the DC50 is 100 to 500 nM at CDK13 and 500 to 1000 nM at CDK12.

With `Cc1ncsc1-c1ccc([C@H](C)NC(=O)[C@@H]2C[C@@H](O)CN2C(=O)[C@@H](NC(=O)COCCOCCn2cc(-c3ccc(N(C(=O)NCc4ccccc4)[C@H]4CC[C@H](Nc5ccc(C#N)cn5)CC4)cc3)ccc2=O)C(C)(C)C)cc1` [Formula 57], the “CDK13 degradation Activity” value on CDK13 was “−”. For the same compound, the “CDK12 degradation Activity” value at CDK12 is “−”.

On to `Cc1ncsc1-c1ccc([C@H](C)NC(=O)[C@@H]2C[C@@H](O)CN2C(=O)[C@@H](NC(=O)COCCOCCOCCOCCOCCn2cc(-c3ccc(N(C(=O)NCc4ccccc4)[C@H]4CC[C@H](Nc5ccc(C#N)cn5)CC4)cc3)ccc2=O)C(C)(C)C)cc1` [Formula 60], for which the DC50 was 500 to 1000 nM on CDK13 and 1000 to 3000 nM on CDK12.

Values taken from patent publication US20260327204A1, “DEGRADERS OF CYCLIN-DEPENDENT KINASE 12/13, COMPOSITIONS, AND USES THEREOF” (ZHEJIANG UNIVERSITY, priority 2023, published 2026).
